In paper PMC10006169, “A phase I trial of LXS196, a protein kinase C (PKC) inhibitor, for metastatic uveal melanoma” (British Journal of Cancer, 2023):
Several values for one entry are separate records, joined by “and”; a condition that tells them apart may be missing. Equal entries are not always repeated.

Legend:
Format in all cases: in vivo, human
[1] = tested on: metastatic uveal melanoma (MUM); test: Tumour response (RECIST v1.1) and progression-free survival
Protocol: Tumour response was assessed locally by computed tomography (CT) and/or magnetic resonance imaging (MRI) of the chest, abdomen and pelvis, according to Response Evaluation Criteria in Solid Tumours (RECIST) v1.1 at baseline, on C3D1 and every two cycles thereafter until cycle 11. After 11 cycles of treatment, response was evaluated every three cycles until the end of treatment. Fresh metastatic tumour biopsies were collected at baseline (prior to first dose) and on treatment at C1D15 to evaluate the modulation of PKC substrate proteins in tumours following exposure to LXS196 and to perform exploratory transcriptome and targeted DNA sequencing. Whole blood samples (peripheral blood mononuclear cells; PBMCs) were collected pre-dose on C1D1 and D15, and at various time points post-dose on C1D1, D2, D3, D15 and D16 to evaluate the modulation of PKC substrate proteins in a surrogate tissue. Owing to the exploratory nature of this phase I study, formal statistical tests were not planned to be performed. Data are presented using descriptive statistics and visualisations. Continuous variables are described with the mean and range. Categorical variables are described using counts and percentages. PFS is described using the Kaplan–Meier (KM) method.

PKC delta (pPKCd, S299) = test: pPKC delta in tumour biopsies (Sally Sue microcapillary electrophoresis); details: QD schedule
From the text: Fresh metastatic tumour biopsies were collected at baseline (prior to first dose) and on treatment at C1D15 to evaluate the modulation of PKC substrate proteins in tumours following exposure to LXS196 and to perform exploratory transcriptome and targeted DNA sequencing. Whole blood samples (peripheral blood mononuclear cells; PBMCs) were collected pre-dose on C1D1 and D15, and at various time points post-dose on C1D1, D2, D3, D15 and D16 to evaluate the modulation of PKC substrate proteins in a surrogate tissue. Owing to the exploratory nature of this phase I study, formal statistical tests were not planned to be performed. Data are presented using descriptive statistics and visualisations. Continuous variables are described with the mean and range. […]
Custom assays were developed to measure the status of the PKC pathway. In brief, tumour tissue was homogenised in lysis buffer, and total protein concentrations were determined using a bicinchoninic acid (BCA) assay (Pierce). […] Total and phosphorylated PKCdelta (PKCd; pPKCd, phosphorylated at S299) levels were determined using microcapillary electrophoresis on the Sally Sue platform (Protein Simple, San Jose, CA, USA). Area under the peaks corresponding to the target was measured and used for further calculation. […]
Total and phosphorylated PKC delta were measured in all feasible tumour biopsies. […] The normalised PKC delta is calculated as follows: […]

RasGRP3, DUSP6 = test: RNAseq gene expression in tumour biopsies
Protocol: Detailed DNA and RNA extraction methods and analysis are described in the supplementary appendix.
RNA libraries were prepared for RNAseq as previously described. Briefly, the total RNA was depleted of ribosomal RNA (rRNA), fragmented, converted to cDNA, and then the next generation sequencing (NGS) library was constructed using the TruSeq RNA v2 Library Preparation Kit (Illumina) with end repair, A-tailing, indexed adaptor ligation and PCR amplification steps. Sequence reads were aligned with STAR [12] to the hg19 human reference genome, and read counts of coding regions were summarised by HTSeq using a reference transcriptome of human Refseq transcripts.

Structure (SMILES): CC1(N)CCN(c2cccnc2NC(=O)c2nc(-c3ncccc3C(F)(F)F)cnc2N)CC1 [LXS196]
- BOR: complete response (CR) ([1]; 300 mg BID (RDE) n=18): 0 n (%)
- BOR: partial response (PR) ([1]; 300 mg BID (RDE) n=18): 2 (11.1%) n (%) and 2 (11.1) n (%)
- BOR: progressive disease (PD) ([1]; 300 mg BID (RDE) n=18): 3 (16.7) n (%)
- BOR: unknown ([1]; 300 mg BID (RDE) n=18): 1 (5.6) n (%)
- Kaplan–Meier PFS rate (95% CI) at 4 months ([1]; 300 mg BID (RDE) n=18): 44.4 (21.6–65.1) %
- Kaplan–Meier PFS rate (95% CI) at 6 months ([1]; 300 mg BID (RDE) n=18): 27.8 (10.1–48.9) %
- Kaplan–Meier PFS rate (95% CI) at 12 months ([1]; 300 mg BID (RDE) n=18): 22.2 (6.9–42.9) %
- Number of PFS events ([1]; 300 mg BID (RDE) n=18): 18 (100) n (%)
- PFS 25th percentile (95% CI) ([1]; 300 mg BID (RDE) n=18): 2.1 (0.8–3.6) months
- PFS 50th percentile, median PFS (95% CI) ([1]; 300 mg BID (RDE) n=18): 3.7 (2.1–5.4) months
- PFS 75th percentile (95% CI) ([1]; 300 mg BID (RDE) n=18): 7.2 (3.7–25.8) months
- PFS events: deaths ([1]; 300 mg BID (RDE) n=18): 1 (5.6) n (%)
- PFS events: progression ([1]; 300 mg BID (RDE) n=18): 17 (94.4) n (%)
- BOR: complete response (CR) ([1]; All BID n=30): 1 n (%) and 1 (3.3) n (%)
- BOR: partial response (PR) ([1]; All BID n=30): 3 n (%) and 3 (10.0) n (%)
- BOR: progressive disease (PD) ([1]; All BID n=30): 6 (20.0) n (%)
- BOR: unknown ([1]; All BID n=30): 2 (6.7) n (%)
- Kaplan–Meier PFS rate (95% CI) at 4 months ([1]; All BID n=30): 50.0 (31.3–66.1) %
- Kaplan–Meier PFS rate (95% CI) at 6 months ([1]; All BID n=30): 33.3 (17.5–50.0) %
- Kaplan–Meier PFS rate (95% CI) at 12 months ([1]; All BID n=30): 26.7 (12.6–43.0) %
- Number of PFS events ([1]; All BID n=30): 30 (100) n (%)
- Overall response rate (ORR: CR + PR) ([1]; All BID n=30): 4 (13.3%) n (%) [95% CI]
- PFS 25th percentile (95% CI) ([1]; All BID n=30): 1.9 (1.6–3.6) months
- PFS 50th percentile, median PFS (95% CI) ([1]; All BID n=30): 4.1 (3.5–7.2) months
- PFS 75th percentile (95% CI) ([1]; All BID n=30): 12.9 (5.4–25.8) months
- PFS events: deaths ([1]; All BID n=30): 2 (6.7) n (%)
- PFS events: progression ([1]; All BID n=30): 28 (93.3) n (%)
- BOR: complete response (CR) ([1]; All QD n=38): 0 n (%)
- BOR: partial response (PR) ([1]; All QD n=38): 2 n (%) and 2 (5.3) n (%)
- BOR: progressive disease (PD) ([1]; All QD n=38): 9 (23.7) n (%)
- BOR: unknown ([1]; All QD n=38): 0 n (%)
- Kaplan–Meier PFS rate (95% CI) at 4 months ([1]; All QD n=38): 36.8 (22.0–51.8) %
- Kaplan–Meier PFS rate (95% CI) at 6 months ([1]; All QD n=38): 26.3 (13.7–40.8) %
- Kaplan–Meier PFS rate (95% CI) at 12 months ([1]; All QD n=38): 0.0 (NE–NE) %
- Number of PFS events ([1]; All QD n=38): 38 (100.0) n (%)
- PFS 25th percentile (95% CI) ([1]; All QD n=38): 3.4 (1.7–3.5) months
- PFS 50th percentile, median PFS (95% CI) ([1]; All QD n=38): 3.5 (3.5–5.4) months
- PFS 75th percentile (95% CI) ([1]; All QD n=38): 6.0 (3.6–7.3) months
- PFS events: deaths ([1]; All QD n=38): 0 (0.0) n (%)
- PFS events: progression ([1]; All QD n=38): 38 (100.0) n (%)
- BOR: complete response (CR) ([1]; All patients N=68): 1 (1.5) n (%)
- BOR: partial response (PR) ([1]; All patients N=68): 5 n (%) and 5 (7.4) n (%)
- BOR: progressive disease (PD) ([1]; All patients N=68): 15 (22.1) n (%)
- BOR: unknown ([1]; All patients N=68): 2 (2.9) n (%)
- Kaplan–Meier PFS rate (95% CI) at 4 months ([1]; All patients N=68): 42.6 (30.8–54.0) %
- Kaplan–Meier PFS rate (95% CI) at 6 months ([1]; All patients N=68): 29.4%
- Kaplan–Meier PFS rate (95% CI) at 12 months ([1]; All patients N=68): 11.8 (5.5–20.6) %
- Number of PFS events ([1]; All patients N=68): 68 (100) n (%)
- Overall response rate (ORR: CR + PR) ([1]; All patients N=68): 8.8 n (%) [95% CI]
- PFS 25th percentile (95% CI) ([1]; All patients N=68): 2.0 (1.7–3.5) months
- PFS 50th percentile, median PFS (95% CI) ([1]; All patients N=68): 3.6 (3.5–5.4) months
- PFS 75th percentile (95% CI) ([1]; All patients N=68): 7.2 (5.4–9.4) months
- PFS events: deaths ([1]; All patients N=68): 2 n (%) and 2 (2.9) n (%)
- PFS events: progression ([1]; All patients N=68): 66 n (%) and 66 (97.1) n (%)
- Stable disease (SD) in evaluable patients ([1]; RECIST v1.1, all doses): 45/66
- Median duration of SD ([1]; n=45, range 2.07–30.23): 5.32 months
- Median duration of response ([1]; patients with RECIST response n=6, range 2.99–41.95): 10.15 months and 10 months
- pPKC delta, mean (range) percentage change from baseline to C1D15 (normalised ratio) (PKC delta (pPKCd, S299)): −68.1 (−91.4, −28.6) %
- MAPK pathway activity as measured by DUSP6 expression (RasGRP3, DUSP6): trend towards suppression in the PR group
- RasGRP3 expression on treatment (RasGRP3, DUSP6; C1D15, QD and BID): decreased in some patients
